# Assay results as given in US20260337153A1, “IONIZABLE AMINE LIPIDS” (Intellia Therapeutics, Inc., priority 2023, published 2026).
# System: rat TTR gene
# Experiment: In vivo editing of TTR in rat liver after LNP delivery (NGS, % editing)
# Parameters: species or system rat (Sprague-Dawley)
# Description: LNPs were prepared using various amine lipids in a 4-component lipid system consisting of an ionizable lipid (e.g., an amine lipid), DSPC, cholesterol and a PEG lipid (e.g., PEG2K-DMG, C13 Ether, C14 Ether). In assays for percent liver editing in rats, Cas9 mRNA and chemically modified sgRNA targeting a rat sequence were formulated in LNPs, at either a 1:1 w/w ratio or a 1:2 w/w sgRNA:Cas9 mRNA ratio.
# The lipid components were dissolved in 100% ethanol with the lipid component molar ratios described below. The chemically modified sgRNA and Cas9 mRNA were combined and dissolved in 25 mM citrate, 100 mM NaCl, pH 5.0, resulting in a concentration of total RNA cargo of approximately 0.45 mg/mL. The LNPs were formulated with an N:P ratio of about 6, with the ratio of chemically modified sgRNA:Cas9 mRNA at either a 1:1 or 1:2 w/w ratio as described below.
# The LNPs were formed by an impinging jet mixing of the lipid in ethanol with two volumes of RNA solution and one volume of water. First, the lipid in ethanol is mixed through a mixing cross with the two volumes of RNA solution. Then, a fourth stream of water is mixed with the outlet stream of the cross through an inline tee. (See, e.g., WO2016010840, FIG. 2). The LNPs were held for 1 hour at room temperature, and further diluted with water (approximately 1:1 v/v). Diluted LNPs were buffer exchanged into 50 mM Tris, 45 mM NaCl, 5% (w/v) sucrose, pH 7.5 (TSS) and concentrated as needed by methods known in the art. The resulting mixture was then filtered using a 0.2 μm sterile filter. The final LNP was stored at 4° C. or −80° C. until further use.
# Sprague-Dawley female rats, ranging from 6-10 weeks of age were used in each study. Animals were weighed and dosed based on individual body weight measured the morning of dosing. LNPs were dosed via the lateral tail vein in a volume of 2 mL per kilogram of animal body weight. The animals were periodically observed for adverse effects for at least 24 hours post dose.
# For studies measuring in vivo editing in liver, Sprague-Dawley female rats were dosed at 0.1 mpk or 0.03 mpk, unless otherwise noted. Animals were euthanized at 6 or 7 days by carbon dioxide asphyxiation and a heart clip or by ex sanguination via cardiac puncture under isoflourane anesthesia. Blood was collected into serum separator tubes. Liver tissue was collected. Genomic DNA was isolated from the liver tissue for editing measurement by Next-Generation Sequencing (NGS).
# In brief, to quantitatively determine the efficiency of editing at the target location in the genome, genomic DNA was isolated and deep sequencing was utilized to identify the presence of insertions and deletions introduced by gene editing.
# PCR primers were designed around the target site (e.g., TTR), and the genomic area of interest was amplified. Additional PCR was performed according to the manufacturer's protocols (Illumina) to add the necessary chemistry for sequencing. The amplicons were sequenced on an Illumina MiSeq instrument. The reads were aligned to the […] after eliminating those having low quality scores. The resulting files containing the reads were mapped to the reference genome (BAM files), where reads that overlapped the target region of interest were selected and the number of wild type reads versus the number of reads which contain an insertion, substitution, or deletion was calculated.
# The editing percentage (e.g., the “indel efficiency” or “percent indels” or “% editing” or “% indel”) can be defined as the total number of sequence reads with insertions or deletions over the total number of sequence reads, including wild type.
# In vivo editing efficiency for materials delivered with formulations including various amine lipid (or ionizable lipid) compounds in Experiments 1 through 14 as described in Tables 3 and 4 was assessed. Editing was measured using G000534 (SEQ ID NO: 5) which targets the rat TTR gene. […]
# [1] = Experiment 5, 0.1 mpk, LNP with PEG2K-DMG
# [2] = Experiment 12, 0.04 mpk, LNP with PEG2K-DMG
# [3] = Experiment 14, 0.03 mpk, LNP with C13 Ether
# [4] = Experiment 7, 0.1 mpk, LNP with PEG2K-DMG
compound,measurement,setting,value
"CCCCC/C=C\C/C=C\CCCCCCCC(=O)OCC(CCCCCCC(=O)OC(CCCC)CCCC)COC(=O)OCCCN(CC)CC (stereo not shown) [Compound 20, 2-((((3-(diethylamino)propoxy)carbonyl)oxy)methyl)-9-(nonan-5-yloxy)-9-oxononyl (9Z,12Z)-octadeca-9,12-dienoate]",Mean % editing,"Experiment 9, 0.1 mpk, LNP with PEG2K-DMG",32.0%
"CCCCCCCCOC(CCC(=O)OCC(COC(=O)CCC(OCCCCCCCC)OCCCCCCCC)COC(=O)NCCN(CC)CC)OCCCCCCCC [Compound 22, 2-((((2-(diethylamino)ethyl)carbamoyl)oxy)methyl)propane-1,3-diyl bis(4,4-bis(octyloxy)butanoate)]",Mean % editing,"Experiment 8, 0.1 mpk, LNP with PEG2K-DMG",61.3%
"CCCCC/C=C\C/C=C\CCCCCCCCC(COC(=O)CCCCCC(=O)OC(CCCCCCCC)CCCCCCCC)COC(=O)NCCN(CC)CC (stereo not shown) [Compound 23, 1-((11Z,14Z)-2-((((2-(diethylamino)ethyl)carbamoyl)oxy)methyl)icosa-11,14-dien-1-yl) 7-(heptadecan-9-yl) heptanedioate]",Mean % editing,"Experiment 6, 0.1 mpk, LNP with PEG2K-DMG",55.3%
same,Mean % editing,"Experiment 11, 0.1 mpk, LNP with PEG2K-DMG",54.0%
"CCCCC/C=C\C/C=C\CCCCCCCC(=O)OCC(CCCCCCCCC(=O)OC(CCCCCCCC)CCCCCCCCC)COC(=O)CCC(CCCCCCCC)OC(=O)NCCN(C)CC (stereo not shown) [Compound 24, 3-methyl-15-(9-(octadecan-9-yloxy)-9-oxononyl)-9-octyl-7,12-dioxo-8,13-dioxa-3,6-diazahexadecan-16-yl (9Z,12Z)-octadeca-9,12-dienoate]",Mean % editing,[1],3.6%
"CCCCC/C=C\C/C=C\CCCCCCCC(=O)OCC(CCCCCCCCC(=O)OC(CCCCCCCC)CCCCCCCCC)COC(=O)CCC(CCCCCCCC)OC(=O)NCCN1CCCC1 (stereo not shown) [Compound 25, 11-(octadecan-9-yloxy)-11-oxo-2-(((4-(((2-(pyrrolidin-1-yl)ethyl)carbamoyl)oxy)dodecanoyl)oxy)methyl)undecyl (9Z,12Z)-octadeca-9,12-dienoate]",Mean % editing,[1],17.0%
"CCCCC/C=C\C/C=C\CCCCCCCC(=O)OCC(CCCCCCCCC(=O)OC(CCCCCCCC)CCCCCCCCC)COC(=O)CCC(CCCC)OC(=O)NCCN(C)CC (stereo not shown) [Compound 26, 9-butyl-3-methyl-15-(9-(octadecan-9-yloxy)-9-oxononyl)-7,12-dioxo-8,13-dioxa-3,6-diazahexadecan-16-yl (9Z,12Z)-octadeca-9,12-dienoate]",Mean % editing,[1],41.9%
"CCCCC/C=C\C/C=C\CCCCCCCC(=O)OCC(CCCCCCCCC(=O)OC(CCCCCCCC)CCCCCCCCC)COC(=O)CCC(CCCC)OC(=O)NCCN1CCCC1 (stereo not shown) [Compound 27, 11-(octadecan-9-yloxy)-11-oxo-2-(((4-(((2-(pyrrolidin-1-yl)ethyl)carbamoyl)oxy)octanoyl)oxy)methyl)undecyl (9Z,12Z)-octadeca-9,12-dienoate]",Mean % editing,[1],55.3%
"CCCCCCCCC(CCCCCCCC)OC(=O)CCCC(=O)OCC(COC(=O)CCCC(=O)OC(CCCCCCCC)CCCCCCCC)COC(=O)NCCN1CCCCC1 [Compound 28, di(heptadecan-9-yl) O,O′-(2-((((2-(piperidin-1-yl)ethyl)carbamoyl)oxy)methyl)propane-1,3-diyl) diglutarate]",Mean % editing,[2],11.0%
"CCCCCCCCC(CCCCCCCC)OC(=O)CCCC(=O)OCC(COC(=O)CCCC(=O)OC(CCCCCCCC)CCCCCCCC)COC(=O)NCCN1CCCC1 [Compound 29, di(heptadecan-9-yl) O,O′-(2-((((2-(pyrrolidin-1-yl)ethyl)carbamoyl)oxy)methyl)propane-1,3-diyl) diglutarate]",Mean % editing,[2],27.3%
"CCCCCCCCC(CCCCCCCC)OC(=O)CCCC(=O)OCC(COC(=O)CCCC(=O)OC(CCCCCCCC)CCCCCCCC)COC(=O)OCCCN(C)CC [Compound 30, O,O′-(2-((((3-(ethyl(methyl)amino)propoxy)carbonyl)oxy)methyl)propane-1,3-diyl) di(heptadecan-9-yl) diglutarate]",Mean % editing,[2],12.6%
"CCCCCCCCC(CCCCCCCC)OC(=O)CCCC(=O)OCC(COC(=O)CCCC(=O)OC(CCCCCCCC)CCCCCCCC)COC(=O)OCCCN(C)C [Compound 31, O,O′-(2-((((3-(dimethylamino)propoxy)carbonyl)oxy)methyl)propane-1,3-diyl) di(heptadecan-9-yl) diglutarate]",Mean % editing,[2],4.0%
"CCCCCCCCC(CCCCCCCC)OC(=O)CCCC(=O)OCC(COC(=O)CCCC(=O)OC(CCCCCCCC)CCCCCCCC)COC(=O)OCCCN1CCCCC1 [Compound 32, di(heptadecan-9-yl) O,O′-(2-((((3-(piperidin-1-yl)propoxy)carbonyl)oxy)methyl)propane-1,3-diyl) diglutarate]",Mean % editing,[2],1.2%
"CCCCCCCCC(CCCCCCCC)OC(=O)CCCC(=O)OCC(COC(=O)CCCC(=O)OC(CCCCCCCC)CCCCCCCC)COC(=O)OCCCN1CCCC1 [Compound 33, di(heptadecan-9-yl) O,O′-(2-((((3-(pyrrolidin-1-yl)propoxy)carbonyl)oxy)methyl)propane-1,3-diyl) diglutarate]",Mean % editing,[2],20.0%
same,Mean % editing in rat liver,"NGS, dose 0.03 mpk, LNP with G000534 sgRNA and Cas9 mRNA 1:2 w/w, 3% C13 Ether (Compound 53: 3% PEG2K-DMG), N=5 (Compound 33: N=4)",12.2%
"CCCCCCCCC(CCCCCCCC)OC(=O)CCCC(=O)OCC(COC(=O)CCCC(=O)OC(CCCCCCCC)CCCCCCCC)COC(=O)CCCN(C)C [Compound 34, O,O′-(2-(((4-(dimethylamino)butanoyl)oxy)methyl)propane-1,3-diyl) di(heptadecan-9-yl) diglutarate]",Mean % editing,[3],14.9%
"CCCCCCCCC(CCCCCCCC)OC(=O)CCCC(=O)OCC(COC(=O)CCCC(=O)OC(CCCCCCCC)CCCCCCCC)OC(=O)NCCN(CC)CC [Compound 35, O,O′-(2-(((2-(diethylamino)ethyl)carbamoyl)oxy)propane-1,3-diyl) di(heptadecan-9-yl) diglutarate]",Mean % editing,[3],10.3%
"CCCCCCCCC(CCCCCCCC)OC(=O)CCCC(=O)OCC(C)(COC(=O)CCCC(=O)OC(CCCCCCCC)CCCCCCCC)COC(=O)NCCN(CC)CC [Compound 36, O,O′-(2-((((2-(diethylamino)ethyl)carbamoyl)oxy)methyl)-2-methylpropane-1,3-diyl) di(heptadecan-9-yl) diglutarate]",Mean % editing,[2],27.4%
"CCCCCCC(CCCCCC)OC(=O)CCCC(=O)OCC(COC(=O)CCCC(=O)OC(CCCCCC)CCCCCC)COC(=O)NCCN(CC)CC [Compound 37, O,O′-(2-((((2-(diethylamino)ethyl)carbamoyl)oxy)methyl)propane-1,3-diyl) di(tridecan-7-yl) diglutarate]",Mean % editing,[2],38.1%
"CCCCCCCCC(CCCCCCCC)C(=O)OCC(COC(=O)NCCN(CC)CC)COC(=O)C(CCCCCCCC)CCCCCCCC [Compound 40, 2-((((2-(diethylamino)ethyl)carbamoyl)oxy)methyl)propane-1,3-diyl bis(2-octyldecanoate)]",Mean % editing,[3],1.0%
"CCCCCCCCCCCC(=O)OCC(COC(=O)CCC(OCCCCCCCC)OCCCCCCCC)COC(=O)OCCCN(CC)CC (stereo not shown) [Compound 41, 3-((4,4-bis(octyloxy)butanoyl)oxy)-2-((((3-(diethylamino)propoxy)carbonyl)oxy)methyl)propyl Dodecanoate]",Mean % editing,[4],5.8%
"CCCCCCCCOC(CCC(=O)OCC(COC(=O)CC(CCCC)CCCCCC)COC(=O)OCCCN(CC)CC)OCCCCCCCC (stereo not shown) [Compound 43, 3-((4,4-bis(octyloxy)butanoyl)oxy)-2-((((3-(diethylamino)propoxy)carbonyl)oxy)methyl)propyl 3-butylnonanoate]",Mean % editing,[4],57.5%
